# Experimental data as given in publication PMC9220178, “Preclinical Characterization of Antioxidant Quinolyl Nitrone QN23 as a New Candidate for the Treatment of Ischemic Stroke” (Antioxidants, 2022).
# Columns and labels:
# [1] = test system: primary neuronal cultures subjected to OGD; design: method as in PMID 30715875; details: cited from earlier work
# [2] = test system: Wistar male rats subjected to global cerebral ischemia; assay: Imaging of cerebral ROS with dihydroethidium (DHE) in brain ischemia; type: in vivo, rat; details: 2.0 mg/kg i.v. at reperfusion onset; CA1 and cortical regions; 6 h of reperfusion
# Protocol: In order to evaluate the antioxidant capacity of QN23 in vivo, the fluorescent probe dihydroethidium (DHE) was used for superoxide and hydrogen peroxide detection according to the experimental procedure described in [29], with minor modifications. Animals subjected to global cerebral ischemia (Wistar male rats of 280–300 g) were treated with vehicle or QN23 at the onset of the reperfusion period, and after 2 h of reperfusion DHE (3.0 mg/kg; 0.9 mg/mL in DMSO/polyethylene glycol 400/saline, 2.5:50:47.5 v/v) was intravenously injected (1 mL). DHE (Sigma-Aldrich, Merck KGaA, Darmstadt, Germany) was freshly weighted and dissolved just before the injection to avoid undesired air-driven oxidation. At 6 h of reperfusion after ischemia (4 h after DHE injection), the animals were euthanized and perfused with saline and 4% (w/v) paraformaldehyde in PBS. […]
# Hippocampal CA1 subfields and cortical fields from a given brain section were randomly selected and analyzed with fluorescence microscopy (20× objective), and the selected images (425 × 340 μm) were digitized with a color CCD camera (1280 × 1024 pixel resolution). Fluorescence intensity (in red) of ROS-reacted DHE was evaluated and normalized to the number of DAPI-stained nuclei by using an image analysis software (Image-J 1.53). At least four images per brain sample, and 3 to 6 brains per experimental group, were evaluated and averaged. […]
# [3] = test system: adult male Wistar rats, four-vessel occlusion (4VO) transient forebrain ischemia; assay: Long-term neuronal viability by S6 protein immunostaining, hippocampal CA1; type: in vivo, rat; details: 2.0 mg/kg i.v. at reperfusion onset; 11 weeks of reperfusion
# Protocol: Transient forebrain ischemia was induced in adult male Wistar rats (10–12 weeks, Charles River, L’Arbresle, France) by the standard four-vessel occlusion (4VO) model previously described. Briefly, animals were anesthetized by intraperitoneal injection of a combination of ketamine, diazepam, and atropine (62.5, 5.0, and 0.25 mg/kg, respectively); positioned in a stereotactic device; and both vertebral arteries were cauterized. The next day, anesthesia was induced with 4% isoflurane and maintained at 2–2.5% isoflurane for carotid artery dissection. After anesthesia withdrawal, the carotid arteries were occluded with an atraumatic vascular clamp to induce brain ischemia. During the entire surgical procedure, temperature was monitored at 2 min intervals and kept at 37 °C. After 15 min of ischemia, the carotid arteries were unclamped for brain reperfusion. The animals were studied after 5 days of reperfusion (R5d), or after 11 weeks of reperfusion (long-term studies), and then they were euthanized under deep anesthesia. Animals from the sham control group were handled in the same way, but without occlusion of the carotid arteries. Ischemic animals were treated with vehicle solution (ethanol/polyethylene glycol 400/saline, 1:300:200 v/v), or with nitrones QN23 or NXY-059 in vehicle solution, as a single injection through the tail vein at the onset of reperfusion. […]
# [4] = applied at onset of recovery period after OGD
compound,measurement,setting,value
"COc1ccc2nc(Cl)c(/C=[N+](\[O-])C(C)(C)C)cc2c1 [QN23, (Z)-N-tert-Butyl-1-(2-chloro-6-methoxyquinolin-3-yl)methanimine Oxide]",Most effective concentration for neuroprotection,[1]; [4],100 µM
same,Optimal range of concentration for neuroprotection,[1]; [4],0.3 to 250 µM
same,ROS and lipid peroxidation levels,[1]; primary neuronal cultures subjected to OGD,decreased
same,Fluorescence intensity of ROS-reacted DHE compared with vehicle,[2],decreased significantly
same,S6-positive cells (viable neurons) in hippocampal CA1,[3],preserved a large number of viable neurons
